For assay [1], the system named is intracellular amastigotes of L. (L.) infantum chagasi. To be noted: ref 44; read-out: IC50 against intracellular amastigotes; cited from earlier work.
Assay [2] concerns the target T1, Nucleoside hydrolase NH36 (Leishmania donovani, UniProt Q8WQX2).
T1 sequence (Q8WQX2 1-314): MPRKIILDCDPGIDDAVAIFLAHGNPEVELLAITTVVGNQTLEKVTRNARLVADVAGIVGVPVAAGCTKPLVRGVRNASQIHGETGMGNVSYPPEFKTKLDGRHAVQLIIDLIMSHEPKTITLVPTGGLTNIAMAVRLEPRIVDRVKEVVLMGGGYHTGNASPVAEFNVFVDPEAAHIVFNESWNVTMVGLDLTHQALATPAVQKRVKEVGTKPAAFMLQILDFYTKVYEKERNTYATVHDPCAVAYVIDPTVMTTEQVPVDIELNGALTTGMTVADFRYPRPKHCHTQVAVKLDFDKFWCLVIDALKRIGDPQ
Kind of assay: Ki determination: inhibition of NH36 activity by immucillins. The class given is biochemical, Leishmania (L.) donovani. The settings on record: 10 mM inosine as substrate, 0.5 nM NH36, pH 7.4, room temperature. The protocol:
(§1) BL21DE3 E.coli were transformed with the synthetic plasmid pET 28b encoding the gene of NH36 of Leishmania (L.) donovani (EMBL, Genbank and DDJB data bases, access number AY007193) with a His6tag at the C-terminal. Expression was induced with 0.5 mM IPTG and overnight incubation at 20°C. Purification of NH36 was performed on a column of Ni-NTA Superflow resin (Qiagen, USA) eluted by a stepwise imidazole gradient and monitored by SDS-polyacrylamide gel electrophoresis and protein assay. The extinction coefficient of NH36 is 21.437 mM^-1 cm^-1 at 280 nm, as calculated with the ProtParam program from ExPASy, and was used to estimate protein concentration (http://ca.expasy.org/seqanalref/). The yield of NH36 after purification was 11.87 mg per Liter of bacterial growth culture. Non-specific His-proteins with weak interactions were eluted with 50–100 mM imidazole (S1 Fig). The purified NH36 started to elute with 150 mM imidazole. We used 250 mM of imidazol in elution buffer for purification of NH36.
The reaction mixtures contained 10 mM inosine as substrate, 50 mM Hepes (pH 7.4), 100 mM KCl, 5 mM DTT and 1 unit XOD. The hydrolysis of inosine to hypoxanthine and ribose was followed by continuous reading of optical absorbance at 293 nm, using variable concentrations of inhibitors in a CARY 300UV-visible spectrophotometer. Controls without enzyme and without inhibitors were included in all inhibition assays. The inhibition constant for each immucillin was obtained, using GraFit 5 (Erithacus Software), by fitting initial rates with variable inhibitor concentrations to the equation (vi/v0 = [S] / Km + [S] + Km[I] / Ki), where v i is the initial rate in the presence of the inhibitor, v 0 is the initial rate in the absence of the inhibitor, K m is the Michaelis constant for inosine, [S] and [I] are inosine and inhibitor concentrations, respectively, and Ki is the inhibition constant.

In assay [3] the test system is L. (L.) infantum chagasi promastigotes. Kind of assay: In vitro growth of promastigotes in FBS supplemented Schneider's insect medium. The assay is classed as cell-based, Leishmania (L.) infantum chagasi. The settings on record: Leishmania infantum; for IC50: single addition at 0 h, evaluated after 48 hours, 26°C, read-out: IC50 (CI 95%) on L. (L.) infantum chagasi promastigotes in vitro growth; for inhibition at 500 µM: after 96 h of culture, read-out: percent inhibition on L. (L.) infantum chagasi promastigote growth. The text has this: The strain of Leishmania (L.) infantum chagasi MHOM/BR/1974/PP75 was obtained from the Leishmania Type Culture Collection (Fundacão Oswaldo Cruz, Rio de Janeiro, RJ, Brazil) and the strain of Leishmania (L.) amazonensis (MHOM/BR/1975/Josefa) was kindly given by Professor Rosâ[…] from Universidade Federal do Rio de Janeiro. Promastigotes were maintained by weekly transfers in screw-capped glass tubes containing Schneider's insect medium (Sigma Aldrich, MO, USA), pH 7.0, supplemented with 10% Fetal Bovine Serum (FBS) at 26°C. […] Log phase promastigotes of L. (L.) infantum chagasi and L. […] Promastigotes were recorded in a Neubauer chamber after 24, 48, 72 and 96 hours of incubation at 26°C. […] The concentration of adenosine in Schneider s insect serum supplemented medium was assessed by HPLC using a C-18 reverse-phase column as described.

The test system of assay [4] is L. (L.) amazonensis promastigotes. The description is as above. The assay is classed as cell-based, Leishmania (L.) amazonensis. To be noted: Leishmania amazonensis; for inhibition at 500 µM: after 96 h of culture, read-out: percent inhibition on L. (L.) amazonensis replication; for IC50: single addition at 0 h, evaluated after 48 hours, 26°C, read-out: IC50 (CI 95%) on L. (L.) amazonensis promastigotes in vitro growth. The text has this: The strain of Leishmania (L.) infantum chagasi MHOM/BR/1974/PP75 was obtained from the Leishmania Type Culture Collection (Fundacão Oswaldo Cruz, Rio de Janeiro, RJ, Brazil) and the strain of Leishmania (L.) amazonensis (MHOM/BR/1975/Josefa) was kindly given by Professor Rosâ[…] from Universidade Federal do Rio de Janeiro. Promastigotes were maintained by weekly transfers in screw-capped glass tubes containing Schneider's insect medium (Sigma Aldrich, MO, USA), pH 7.0, supplemented with 10% Fetal Bovine Serum (FBS) at 26°C. Stock solutions (20 mM) of immucillins IA […] prepared using Milli-Q purified water. Log phase promastigotes of L. (L.) infantum chagasi and L. […] Promastigotes were recorded in a Neubauer chamber after 24, 48, 72 and 96 hours of incubation at 26°C. […] We also assayed the possibility of reversing the inhibitory effect of IA in RPMI medium by the addition of adenosine to the culture medium. The concentration of adenosine in Schneider s insect serum supplemented medium was assessed by HPLC using a C-18 reverse-phase column as described.

Assay [5] deals with Nucleoside hydrolase NH36 of L. (L.) donovani. The assay is classed as biochemical, Leishmania (L.) donovani. To be noted: substrate of NH36; for k cat /K m: catalytic efficiency; for K m / k cat: 25°C, 50 mM Hepes pH 7.4. The procedure: as §1
Steady-state kinetic rates for NH36 were determined on the substrates inosine, guanosine, adenosine, uridine and cytidine. Hypoxanthine and adenine formation were coupled to xanthine oxidase (12.9 mM^-1 cm^-1 at 293 nm and 15.2 mM^-1 cm^-1 at 305 nm, respectively), and the others were followed by direct uv absorbance changes resulting from cleavage of the N-ribosidic bond. Reaction mixtures contained 50 mM Hepes (pH 7.4), 100 mM NaCl and 5 mM of DTT. One unit, and 0.1 unit of xanthine oxidase (XOD) were used as the coupling enzyme to the adenosine and inosine assays, respectively. Spectral changes for hydrolysis of guanosine, uridine and cytidine were 5.4 mM^-1 cm^-1 at 257 nm,1.8 mM^-1 cm^-1 at 280 nm and 1.8 mM^-1 cm^-1 at 288 nm, respectively. Variable concentrations of substrate and appropriate amounts of purified NH36 were added in all assays. The hydrolysis of nucleosides to bases and ribose was followed by continuous recording of optical absorbance after addition of the enzyme, in a CARY 300 UV-visible spectrophotometer. Control rates with no enzyme addition were subtracted from initial rates. Reactions with substrates were conducted at 25°C using 1 cm path length cuvettes containing 1 mL reaction volumes. Kinetic parameters of NH36 were obtained by fitting initial rates to the Michaelis−Menten equation using GraFit 5 (Erithacus Software).

A further assay concerns NH of L. (L.) major. Set-up: method as in PMID 10409664. The settings on record: unit inferred; cited from earlier work.

These results are taken from publication PMC4409337, “Immucillins Impair Leishmania (L.) infantum chagasi and Leishmania (L.) amazonensis Multiplication In Vitro” (PLoS ONE, 2015).

In the case of `CCCCCCCCCCCCCCCCOP(=O)([O-])OCC[N+](C)(C)C` [Miltefosine], in assay [1], the half-inhibitory concentration (IC50) (usually the point on the concentration scale where inhibition reaches its midpoint) was 4.4 µM.
As for `CC[C@H]1OC(=O)[C@H](C)[C@@H](O[C@H]2C[C@@](C)(OC)[C@@H](O)[C@H](C)O2)[C@H](C)[C@@H](O[C@@H]2O[C@H](C)C[C@H](N(C)C)[C@H]2O)[C@](C)(O)C[C@@H](C)CN(C)[C@H](C)[C@@H](O)[C@]1(C)O` [Azitromycin], the half-maximal inhibitory concentration (IC50) in assay [1] is 19.9 µM.
Take `Nc1ncnc2c(CN3C[C@H](CO)[C@@H](O)C3)c[nH]c12` [DIA]: the Ki (as a rule, the equilibrium dissociation constant of an inhibitor or competing ligand from its target) in assay [2] was > 5 µM. Further, in assay [3], the half-maximal inhibitory concentration (IC50) amounted to 109 µM. Further, the inhibition – broadly, the change of the read-out against control, counted positive when it falls – at 500 µM in assay [3] worked out at 69%; in assay [4], 16%.
Consider `C[C@@H]1[C@H](O)[C@@H](C)/C=C/C=C/C=C/C=C/C=C/C=C/C=C/[C@H](O[C@@H]2O[C@H](C)[C@@H](O)[C@H](N)[C@@H]2O)C[C@@H]2O[C@](O)(C[C@@H](O)C[C@@H](O)[C@H](O)CC[C@@H](O)C[C@@H](O)CC(=O)O[C@H]1C)C[C@H](O)[C@H]2C(=O)O` [Amphotericin], for which the half-inhibitory concentration (IC50) in assay [1] was 0.04 µM.
Regarding `O=c1[nH]cnc2c(CN3C[C@H](CO)[C@@H](O)C3)c[nH]c12` [DIH], in assay [2], the inhibition constant (Ki) is > 5 µM. In assay [3], the IC50 came to 1.8 µM and the inhibition at 500 µM stood at 89%. In assay [4], the inhibition at 500 µM amounted to 89% and the IC50 is 3.4 µM.
As for `Nc1nc2c(ncn2[C@@H]2O[C@H](CO)[C@@H](O)[C@H]2O)c(=O)[nH]1` [Guanosine], in assay [5], the “k cat /K m” value stood at 1200 M⁻¹ s⁻¹, the K m is 380 ± 153 µM and the k cat was 0.47 ± 0.1 s ^-1.
In the case of `Nc1ncnc2c1ncn2[C@@H]1O[C@H](CO)[C@@H](O)[C@H]1O` [Adenosine], in assay [5], the “k cat /K m” value came out at 53000 M⁻¹ s⁻¹, the K m worked out at 70 ± 30 µM and the k cat is on record as 3.7 ± 0.1 s ^-1. Besides, the k cat in the assay with NH of L. (L.) major is 0.57 s⁻¹.
Consider `Nc1nc2c(CN3C[C@H](CO)[C@@H](O)C3)c[nH]c2c(=O)[nH]1` [DIG], for which the inhibitory constant (Ki) in assay [2] is > 5 µM. In assay [3], the half-inhibitory concentration (IC50) is 23.7 µM and the inhibition at 500 µM amounted to 68%. In assay [4], the inhibition at 500 µM was 67% and the concentration for half-maximal inhibition (IC50) worked out at 40 µM.
In the case of `Nc1ncnc2c(CNC(CO)CO)c[nH]c12` [SMIA], the Ki in assay [2] was > 5 µM. In assay [3], the IC50 stood at 349 µM and the inhibition at 500 µM amounted to 71%. Further, in assay [4], the inhibition at 500 µM worked out at 71% and the IC50 is 157 µM.
`NC[C@@H]1O[C@H](O[C@H]2[C@@H](O)[C@H](O[C@@H]3[C@@H](O)[C@H](N)C[C@H](N)[C@H]3O[C@H]3O[C@H](CO)[C@@H](O)[C@H](O)[C@H]3N)O[C@@H]2CO)[C@H](N)[C@@H](O)[C@@H]1O` [Paramomycin]: the IC50 in assay [1] was 337 µM.
In the case of `Nc1nc2c(CNC(CO)CO)c[nH]c2c(=O)[nH]1` [SMIG], in assay [2], the Ki came to 1.8 µM. Besides, in assay [3], the 50% inhibitory concentration (IC50) was 25.8 µM and the inhibition at 500 µM was found to be 70%. The IC50 in assay [4] worked out at 29.4 µM.
Take `Nc1ccn([C@@H]2O[C@H](CO)[C@@H](O)[C@H]2O)c(=O)n1` [Cytidine]: in assay [5], the “k cat /K m” value came to 9300 M⁻¹ s⁻¹, the K m is 1,403 ± 282 μM and the k cat came to 13.1 ± 1.1 s ^-1. Further, in the assay with NH of L. (L.) major, the k cat is 0.36 s⁻¹.
